The structures appear in SMILES notation.

As usually defined, the IC50 is the concentration that gives 50% inhibition.

This assay has as its target T1, Aβ40 (Homo sapiens, UniProt P05067).
T1 construct: Compounds Showing Activity Observed in a ThT Functional Aβ 1-40 Aggregation Assay
Description: ThT functional Aβ 1-40 aggregation assay. It counts as biochemical. As to conditions: for IC50: 20 μM Aβ, 20 mM Tris pH 7.4, 150 mM NaCl, 1% DMSO, 37° C.; for Ratio: potency with respect to the compound of Example 7, 1=potency of that compound. On the procedure: Aβ40 (1.0 mg) was pre-treated in a 1.5 mL microfuge tube with HFIP (1 mL) and sonicated for 20 min to disassemble any pre-formed Aβ aggregates. The HFIP was removed with a stream of argon and the Aβ dissolved in Tris base (5.8 mL, 20 mM, pH ˜10). The pH was adjusted to 7.4 with concentrated HCl (˜10 μL) and the solution filtered using a syringe filter (0.2 μm) before being used.
The kinetic ThT assay for Aβ aggregation is similar to that of Chalifour et al (Chalifour et al, 2003, J. Biol. Chem. 278:34874-81). Briefly, pre-treated Aβ40 (40 μM in 20 mM Tris, pH 7.4), was diluted with an equal volume of 8 μM ThT in Tris (20 mM, pH 7.4, 300 mM NaCl). Aliquots of Aβ/ThT (200 μL) were added to wells of a black polystyrene 96-well plate, followed by 2 μL of a compound in DMSO (variable concentration), or DMSO alone (controls). Incubations were performed in triplicate and were taken to contain 20 μM Aβ, various concentration of compound in 20 mM Tris, pH 7.4, 150 mM NaCl, 1% DMSO. Plates were covered with clear polystyrene lids and incubated at 37° C. in a Tecan Genios microplate reader. Fluorescence readings (λex=450 nm, λem=480 nm) were taken every 15 min., after first shaking at high intensity for 15 s and allowing to settle for 10 s before each reading. Active compounds attenuated the increase in fluorescence over time that occurred in controls. By repeating this procedure over several concentrations, a mean inhibitory concentration (IC50) was measured, as given in the table below. The column “A-syn” represents a similar procedure measuring inhibition of alpha-synuclein aggregation. The column “ratio” is a reproducible assessment of potency with respect to the compound of Example 7, in which 1=potency of that compound: […]

T1 sequence (P05067 672-711 limits assumed): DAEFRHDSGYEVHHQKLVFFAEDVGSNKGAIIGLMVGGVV

As to `CC(=O)N1CCN(c2ccc([N+](=O)[O-])c(N3CCc4ccccc4C3)c2)CC1`, the IC50 amounted to 4.03 µM.

`O=C(c1ccccc1F)N1CCN(c2ccc([N+](=O)[O-])c(NCc3ccco3)c2)CC1` gave an IC50 of 2.1 µM.

Compound `O=C(c1nnc[nH]1)N1CCN(c2ccc([N+](=O)[O-])c(NCc3ccc(Cl)cc3)c2)CC1` returned an IC50 of 1.4 µM.

In turn, `COc1ccc(C(=O)N2CCN(c3ccc([N+](=O)[O-])c(NCc4ccco4)c3)CC2)cc1OC` yielded an IC50 greater than 20 µM.

Turning to `CCOC(=O)C1CCN(c2ccc([N+](=O)[O-])cc2C(=O)c2ccc(Cl)cc2)CC1`, the IC50 was greater than 20 µM.

Regarding `O=C(c1cccs1)N1CCN(c2ccc([N+](=O)[O-])c(-n3nc(-c4ccccc4)c4ccccc4c3=O)c2)CC1`, the IC50 was greater than 20 µM.

With `O=[N+]([O-])c1ccc(Br)cc1NCc1ccccc1`, the 50% inhibitory concentration (IC50) is 20 to 50 µM.

Consider `CC(=O)N1CCN(c2ccc([N+](=O)[O-])c(NCc3ccccc3)c2)CC1`, for which the IC50 is 25.8 µM and the Ratio was found to be 0.58.

On to `O=[N+]([O-])c1ccc(N2CCNCC2)cc1Nc1ccccc1`, for which the IC50 worked out at 8.82 µM and the Ratio turned out to be 0.54.

In turn, `O=C(c1ccccc1)N1CCN(c2ccc([N+](=O)[O-])c(Oc3ccccc3)c2)CC1` displayed an IC50 greater than 50 µM.

Regarding `CN1CCN(c2ccc([N+](=O)[O-])c(Nc3ccccc3)c2)CC1`, 23.2 µM corresponded to half-maximal inhibition (IC50) and the Ratio was 0.42.

Compound `O=[N+]([O-])c1ccc(N2CCN(Cc3ccccc3)CC2)cc1Nc1ccccc1` gave a half-maximal inhibitory concentration (IC50) greater than 50 µM.

On to `O=[N+]([O-])c1ccc(N2CCN(S(=O)(=O)c3ccccc3)CC2)cc1Nc1ccccc1`, for which the IC50 was greater than 50 µM.

The compound `O=[N+]([O-])c1ccc(N2CCCCC2)cc1Nc1ccccc1` returned an IC50 greater than 100 µM.

Regarding `O=[N+]([O-])c1ccc(N2CCOCC2)cc1Nc1ccccc1`, it took 23 µM to reach half-maximal inhibition (IC50) and the Ratio came out at 0.40.

In turn, `CS(=O)(=O)N1CCN(c2ccc([N+](=O)[O-])c(Nc3ccccc3)c2)CC1` showed an IC50 greater than 50 µM.

Turning to `CN(C)C(=O)N1CCN(c2ccc([N+](=O)[O-])c(Nc3ccccc3)c2)CC1`, the IC50 stood at 8.4 µM and the Ratio was determined as 0.72.

Regarding `CN(C)c1ccc([N+](=O)[O-])c(Nc2ccccc2)c1`, the IC50 turned out to be 39 µM and the Ratio is given as 0.15.

As to `O=C(Nc1cc(N2CCN(C(=O)c3ccccc3)CC2)ccc1[N+](=O)[O-])c1ccccc1`, the IC50 amounted to 178 µM and the Ratio came out at 0.05.

With `CC(=O)Nc1cc(N2CCN(C(=O)c3ccccc3)CC2)ccc1[N+](=O)[O-]`, it took 44 µM to reach half-maximal inhibition (IC50) and the Ratio is given as 0.19.

As to `O=C(O)c1ccccc1-c1ccc([N+](=O)[O-])c(NCc2ccccc2)c1`, the IC50 was determined as 41.9 µM and the Ratio turned out to be 0.5.

For the compound `O=C(O)c1ccc(-c2ccc([N+](=O)[O-])c(NCc3ccccc3)c2)cc1`, the IC50 was 184 µM and the Ratio turned out to be 0.02.

Consider `O=C(Nc1ccccc1)c1ccccc1-c1ccc([N+](=O)[O-])c(NCc2ccccc2)c1`, for which the midpoint of inhibition, the IC50, lay at 152 µM and the Ratio is on record as 0.03.

On to `O=C(NCc1ccccc1)c1ccc(-c2ccc([N+](=O)[O-])c(NCc3ccccc3)c2)cc1`, for which the IC50 was found to be 42 µM and the Ratio is reported as 0.11.

`O=C(Nc1ccccc1)c1ccc(-c2ccc([N+](=O)[O-])c(NCc3ccccc3)c2)cc1`: the IC50 turned out to be 217 µM and the Ratio was 0.07.

In the case of `O=C(Nc1cc([N+](=O)[O-])ccc1N1CCN(C(=O)c2ccccc2)CC1)c1ccccc1`, inhibition was half-maximal at 1040 µM (IC50) and the Ratio worked out at 0.01.

With `O=C(NCc1ccccc1)c1ccccc1-c1ccc([N+](=O)[O-])c(NCc2ccccc2)c1`, the IC50 came out at 631 µM and the Ratio turned out to be 0.02.

`O=C(O)c1ccc(N2CCN(C(=O)c3ccccc3)CC2)cc1NCc1ccccc1`: it took 189 µM to reach half-maximal inhibition (IC50) and the Ratio was 0.05.

Consider `CN(C)C(=O)c1ccc(N2CCN(C(=O)c3ccccc3)CC2)cc1NCc1ccccc1`, for which the IC50 came out at 84 µM and the Ratio is listed as 0.11.

Regarding `NC(=O)c1ccc(N2CCN(C(=O)c3ccccc3)CC2)cc1NCc1ccccc1`, the IC50 came out at 265 µM and the Ratio is 0.03.

With `CCNC(=O)c1ccc(N2CCN(C(=O)c3ccccc3)CC2)cc1NCc1ccccc1`, half-maximal inhibition (IC50) was put at 66.2 µM and the Ratio was determined as 0.13.

As to `O=C(Nc1ccccc1)c1cccc(-c2ccc([N+](=O)[O-])c(NCc3ccccc3)c2)c1`, the IC50 was 5730 µM and the Ratio is recorded as 0.

For the compound `O=C(NCc1ccccc1)c1cccc(-c2ccc([N+](=O)[O-])c(NCc3ccccc3)c2)c1`, the IC50 came out at 14900 µM and the Ratio worked out at 0.

Take `O=C(O)C1CCN(c2ccc([N+](=O)[O-])c(NCc3ccccc3)c2)CC1`: inhibition was half-maximal at 23 µM (IC50) and the Ratio turned out to be 0.89.

`O=C(Nc1ccccc1)C1CCN(c2ccc([N+](=O)[O-])c(NCc3ccccc3)c2)CC1`: the concentration for half-maximal inhibition (IC50) came to 544 µM and the Ratio is 0.05.

Turning to `O=C(NCc1ccccc1)C1CCN(c2ccc([N+](=O)[O-])c(NCc3ccccc3)c2)CC1`, inhibition was half-maximal at 975 µM (IC50) and the Ratio is 0.03.

As for `O=C(c1ccccc1)N1CCN(c2ccc([N+](=O)[O-])cc2Nc2ccccc2)CC1`, the IC50 is 92 µM and the Ratio is given as 0.34.

As to `Nc1ccc(N2CCN(C(=O)c3ccccc3)CC2)cc1Nc1ccccc1`, the IC50 worked out at 1.9 µM and the Ratio is 9.9.

For `CCN(CC)C(=O)c1ccc(N2CCN(C(=O)c3ccccc3)CC2)cc1NCc1ccccc1`, it took 361 µM to reach half-maximal inhibition (IC50) and the Ratio is recorded as 0.05.

Take `O=C(O)C1CCCN(c2ccc([N+](=O)[O-])c(NCc3ccccc3)c2)C1` (stereo not shown): the IC50 came to 21.7 µM and the Ratio is recorded as 0.88.

As for `Nc1cccc(N2CCN(C(=O)c3ccccc3)CC2)c1`, the IC50 was determined as 428 µM and the Ratio is listed as 0.05.

As to `O=C(c1ccccc1)N1CCN(c2cccc(Nc3ccccc3)c2)CC1`, the IC50 stood at 539 µM and the Ratio is on record as 0.05.

Regarding `Nc1ccc(N2CCN(C(=O)c3ccccc3)CC2)cc1N(Cc1ccccc1)c1ccccc1`, it took 107 µM to reach half-maximal inhibition (IC50) and the Ratio is 0.35.

In the case of `CN(C)c1ccc(N2CCN(C(=O)c3ccccc3)CC2)cc1N(C)c1ccccc1`, the IC50 was 148 µM and the Ratio worked out at 0.25.

On to `CN(c1ccccc1)c1cc(N2CCN(C(=O)c3ccccc3)CC2)ccc1N`, for which the IC50 stood at 15.5 µM and the Ratio is 0.65.

On to `CNc1ccc(N2CCN(C(=O)c3ccccc3)CC2)cc1N(C)c1ccccc1`, for which the IC50 was found to be 7.8 µM and the Ratio is 1.3.

For the compound `CNc1ccc(N2CCN(C(=O)c3ccccc3)CC2)cc1Nc1ccccc1`, the midpoint of inhibition, the IC50, lay at 2.29 µM and the Ratio came out at 4.4.

In the case of `O=C(c1ccccc1)N1CCN(c2ccc(NCCO)c(Nc3ccccc3)c2)CC1`, the IC50 is 90 µM and the Ratio is listed as 0.1.

Take `O=C(c1ccccc1)N1CCN(c2ccc(NCCN3CCOCC3)c(Nc3ccccc3)c2)CC1`: the IC50 stood at 54.4 µM and the Ratio is 0.17.

Turning to `COc1ccc(N2CCN(C(=O)c3ccccc3)CC2)cc1Nc1ccccc1`, it took 238 µM to reach half-maximal inhibition (IC50) and the Ratio worked out at 0.04.

Values taken from patent US8420640B2, “Methods of treating amyloid disease using analogs of 1-(4-nitrophenyl) piperazine” (Treventis Corporation, priority 2008, dated 2013).
